# From a melting point compilation (Tetko et al.; mined from patent text by program, amines drawn as free bases though some values may be those of a salt)
row,SMILES,melting point [°C]
1,CC(C)Oc1ccccc1C1(OCC(=O)O)C(=O)Nc2ccc(Cl)cc21 (configuration not stated),225 to 228
2,CCC(=O)c1ccc(=O)[nH]c1CC,138 to 140
3,COC(=O)C1(CCCCCCCCCCCCC2(C(=O)NC3CC3)CC2)CC1,50.6 to 53
4,CCOC(=O)c1c(C(F)(F)F)nc(OCC)c(C(=O)OC)c1OCC,46 to 48
5,C=C1CC2C(=CCC3(C)C2CC(C)C3(OC(C)=O)C(C)=O)C2(C)CCC(=O)C=C12 (configuration not stated),197 to 198
6,CCOC(=O)c1cnn2c1c(OCC)nc1ccccc12,88 to 90
7,Cn1nnnc1-c1cnc2cc(Cl)c(F)cc2c1O,326 to 330
8,COC(=O)[C@H]1Cc2ccc(C)cc2C(=O)[C@H](c2ccccc2)S1 (relative stereo),136 to 137
9,CC(=O)c1cc(Cl)c2c(c1Cl)C(C)(C)CCS2(=O)=O,154 to 155
10,O=C(O)C=C1SC(=Nc2ccc(Br)c(Br)c2)N(c2ccc(Br)c(Br)c2)C1=O,235 to 237
11,OCCSC(=S)Nc1ccc(Cl)cn1,108
12,COc1cc(F)ccc1-c1ccc(O)c(C(=O)O)c1,205 to 207
13,CCn1c(C)nc2cc(S(C)(=O)=O)c(Cl)c([N+](=O)[O-])c21,75 to 79
14,CCOC(=O)N=C(OCC)c1ccccc1Cl,65 to 66
15,c1ccc2c(c1)cc(Cn1ccnc1)c1ccsc12,109 to 111
16,NC(=O)NN=Cc1ccc(Cc2ccccc2)cc1,118 to 120
17,Nc1nc2ccccc2c2c1nc(CCCOc1ccccc1)n2CCCCNC(=O)N1CCOCC1,71.5 to 72.1
18,O=C1CN=C(c2ccccc2)c2cc(C(=O)c3ccc(Cl)cc3)ccc2N1,230
19,CCNC(=O)C1CC2(NC(=O)NC2=O)c2cc(F)ccc2O1 (configuration not stated),> 300
20,CCCCCc1ccc2c(c1)Cc1cc(CCCCC)ccc1-2,98.9 to 99.6
21,O=c1[nH]c(=O)n(C2CC(OCc3ccccc3Cl)C(CO)O2)cc1F (configuration not stated),78 to 80
22,CCOCc1nc2c(Cl)nc(C)c(C)c2n1NC1CCOCC1,137 to 139
23,CCC(=O)C(=CN(C)C)Oc1cc(Cl)cc(Cl)c1,96 to 97
24,CC(C)n1cc2c3c(cccc31)C1CC(C(=O)NC3CCCCC3)CN(C)C1C2 (configuration not stated),> 250
25,CCC1c2nc[nH]c2CCN1C(=S)NC(C)C (configuration not stated),215

row,SMILES,melting point [°C]
1,O=C(NCC1CCCC1)c1ccc2c(Br)n[nH]c2c1,119 to 125
2,Cc1cccc2c1NC(=O)c1cccnc1N2,233 to 235
3,CCCC(=O)CN1CCC(CCN2CCN(c3cccc(C)c3C)CC2)CC1,47
4,COC(C)CN(C)CC=CC(=O)Nc1cc2c(Nc3ccc(F)c(Cl)c3)ncnc2cc1OCC1CC1 (configuration not stated),123 to 125
5,O=c1c2c(N3CCNCC3)cc(Cl)cc2n(Cc2ccccc2)c(=O)n1Cc1ccccc1O,113 to 130
6,O=Cc1c[nH]c2c1ccc1c3cccc(F)c3[nH]c12,> 250
7,COc1ccc2c(O)cc(=O)oc2c1C,195 to 197
8,CC(C)(C)OC(=O)NC1CCCCc2cc(OCC3CCCCC3)c(C(N)=O)cc21 (configuration not stated),193 to 194
9,Cc1ccc(N(C(=O)CCl)c2c(C)cccc2Cl)cc1,113 to 114
10,N#Cc1ccc(CC23CCNN2C(=O)N(c2cc(Cl)nc(Cl)c2)C3=O)cc1 (configuration not stated),187
11,Cn1ncc2c1-c1c(Oc3ccccc3)sc(C(=O)O)c1CC2,259 to 261
12,CC(=O)NC(=Cc1ccc(OC(C)=O)cc1)C(=O)O,236 to 237
13,Cc1c[nH]c2c([N+](=O)[O-])ccc(C)c2c1=O,250 to 262
14,C=CCNC(=O)n1nc(NC)n(C)c1=O,136 to 137
15,CC(=O)c1sc(=O)[nH]c1C,208 to 211
16,Cc1ccnc(C(C#N)Sc2nc(N)cc(Cl)n2)c1 (configuration not stated),145 to 146
17,CC1(C)[C@H]2CC[C@@H](CC(=O)O)[C@@H]1C2,50 to 53
18,COc1ccccc1-c1ccccc1C#N,54 to 55
19,O=C(O)CON=C(c1ccccc1)c1cc2ccncc2[nH]1,68 to 73
20,N#CCCNC(=O)c1n[nH]cc1NC(=O)c1cc2ccccc2o1,231 to 233
21,CC(C)OCC1(C(F)(F)F)c2cc(C#N)ccc2Nc2ncc(C#N)cc21 (configuration not stated),226 to 227
22,CO/C=C(/C(=O)OC)c1ccccc1Oc1cc(Cl)ncn1,94 to 95
23,CN(c1ccc2sccc2c1)c1nc(=O)c2cccnc2s1,214 to 216
24,CCCNCc1cnc(-c2ncn3c2CN(C)C(=O)c2cc(F)ccc2-3)o1,134 to 136
25,CC(=O)CC(=O)Nc1ccc(Cn2ccnc2)cc1,175

# More lines, now with the values ahead:
row,melting point [°C],SMILES
1,126,COC(=O)CSCc1sccc1S(=O)(=O)N(C)c1cccc2cc(-c3nccs3)[nH]c12
2,138 to 142,O=C(O)[C@H](CCc1ccccc1)NS(=O)(=O)c1ccc2c(c1)Cc1ccccc1O2
3,140 to 142,Nc1cccc(-c2ccc(CCN3CCN(c4nccn4-c4ccccc4)CC3)cc2)n1
4,220 to 222,Cc1c(-c2ccc(O)cc2)sc(C#N)c1-c1cccc(O)c1
5,204 to 207,O=C(O)c1cn(-c2ccc(F)cc2)c2cc(N3CCNC(COc4ccccc4)C3)c(F)cc2c1=O (configuration not stated)
6,95 to 97,COC(=O)CCCc1cc2cc(Cl)ccc2n1S(=O)(=O)c1ccc(C(C)C)cc1
7,225 to 228,Cc1ccc2c(c1)N(CC(=O)c1ccccc1C)C(=O)C(NC(=O)Nc1ccc(F)c(C(=O)O)c1)CN2C(=O)C(C)(C)C (configuration not stated)
8,> 200,COc1cc2c(cc1C(F)(F)F)N(C(=O)Nc1csc(-c3cccnc3)n1)CC2
9,256 to 259,O=C(Nc1cc(-c2ccc(-c3ccccc3)cc2)on1)c1c(Cl)cccc1Cl
10,281 to 283,CS(=O)(=O)c1ccc(-c2[nH]c3ccc(Cl)cc3c2-c2ccc(Cl)cc2)cc1
11,75 to 80,CC1(C)c2ccc(CCN3CCN(c4noc5ccccc45)CC3)cc2C(C)(C)C1NS(C)(=O)=O (configuration not stated)
12,128 to 129,C=CC(=O)OCCOc1ccc(-c2nc(-c3ccc(C)cc3C)nc(-c3ccc(C)cc3C)n2)c(O)c1
13,155 to 158,COc1ccc(C[C@H](Nc2nc3ccc(Cl)cc3cc2C(=O)O)C(=O)O)cc1
14,144 to 147,CCCCCS(=O)(=O)NC(=O)/C=C/c1cc(OCC2(C)COC2)nn1Cc1ccc(C(F)(F)F)cc1Cl
15,160 to 162,C=C(C)C(=O)Nc1ccc(-n2nc(C(F)(F)F)cc2C(F)(F)F)cc1
16,118 to 120,CC(O)(CC(=O)O)c1ccc(-c2ccc(Br)cc2Br)cc1 (configuration not stated)
17,65 to 66,CC(=NO)C(C)(C)COc1ccc(F)cc1
18,206 to 208,CCOC(=O)C(Cc1cc2ccccc2[nH]c1=O)NC(=O)c1ccc(OC)cc1 (configuration not stated)
19,198 to 199,O=C(O)C1=Cc2cc(Cl)c(Oc3ccc(OC(F)(F)F)cc3)cc2OC1C(F)(F)F (configuration not stated)
20,142 to 144,O=S(=O)(Cl)c1ccc2c(c1)oc1ccccc12
21,177 to 180,CC(C)(C)c1ccc(S(=O)(=O)Oc2ccc(C(c3ccc(OS(=O)(=O)c4ccc(C(C)(C)C)cc4)cc3)(C(F)(F)F)C(F)(F)F)cc2)cc1
22,127 to 128,CC=Cn1c(C(O)(c2ccc(Cl)cc2)c2ccc(Cl)cc2)nc(C)c1C
